For twelve compounds, IC50 results are on record in patent US9051310B2, “Nicotinamide derivative or salt thereof” (FUJIFILM Corporation, priority 2011, dated 2015).

This assay concerns the target T1, glutathione S-transferase (GST)-linked full-length human Syk protein (Homo sapiens, UniProt P43405).
T1 construct: glutathione S-transferase (GST)-linked full-length human Syk protein; purchased Carna Biosciences; host or cells: Baculovirus expression system
Put plainly: Syk enzyme assay. It is filed as biochemical. Conditions: 0.83 nM Syk, time-resolved fluorescence; read-out: IC50 of Syk-inhibitory activity. In short, it runs like this:
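Phosphotyrosine on a biotin-peptide substrate (0.5 μM) was read by time-resolved fluorescence at 615 and 665 nm with Eu-anti-pTyr antibody and APC-streptavidin after 1 h EDTA stop.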
Turning to `COCCn1ncc2cc(Nc3nc(N[C@H](c4ccc(OC)cc4)[C@H](C)N)c(F)cc3C(N)=O)ccc21` [Example 2-455, 6-(((1R,2S)-2-amino-1-(4-methoxyphenyl)propyl)amino)-5-fluoro-2-((1-(2-methoxyethyl)-1H-indazol-5-yl)amino)nicotinamide], the IC50 is below 10 nM.
In the case of `CCC[C@@H](Nc1nc(Nc2cnc(OCC)c(-n3cccn3)c2)c(C(N)=O)cc1F)[C@H](C)N` [Example 2-201, 6-(((2S,3R)-2-aminohexan-3-yl)amino)-2-((6-ethoxy-5-(1H-pyrazol-1-yl)pyridin-3-yl)amino)-5-fluoronicotinamide] it was 10 to 50 nM; in that of `CC(C)C[C@H](CN)Nc1nc(Nc2cnc(N3CCOCC3)c(F)c2)c(C(N)=O)cc1F` [Example 2-261, (R)-6-((1-amino-4-methylpentan-2-yl)amino)-5-fluoro-2-((5-fluoro-6-morpholinopyridin-3-yl)amino)nicotinamide], 10 to 50 nM; in that of `CC[C@H](N)[C@@H](C)Nc1nc(Nc2ccc3c(c2)c(N(C)C)nn3CCOC)c(C(N)=O)cc1F` [Example 2-507, 6-(((2R,3S)-3-aminopentan-2-yl)amino)-2-((3-(dimethylamino)-1-(2-methoxyethyl)-1H-indazol-5-yl)amino)-5-fluoronicotinamide], 50 to 100 nM.
Turning to `CC[C@H](N)[C@@H](C)Nc1nc(Nc2cc(F)cc3c2cnn3CC)c(C(N)=O)cc1F` [Example 2-373, 6-(((2R,3S)-3-aminopentan-2-yl)amino)-2-((1-ethyl-6-fluoro-1H-indazol-4-yl)amino)-5-fluoronicotinamide], the IC50 is below 10 nM.
Consider `C[C@H](N)[C@H](Nc1nc(Nc2ccc3c(c2)c(N(C)C)nn3C)c(C(N)=O)cc1F)c1cc(F)cc(F)c1` [Example 2-549, 6-(((1R,2S)-2-amino-1-(3,5-difluorophenyl)propyl)amino)-2-((3-(dimethylamino)-1-methyl-1H-indazol-5-yl)amino)-5-fluoronicotinamide], for which the 50% inhibitory concentration (IC50) lay within 10 to 50 nM.
For `COc1cc(Nc2nc(N[C@@H](CN)Cc3ccccc3)c(F)cc2C(N)=O)cc(OC)n1` [Example 2-418, (R)-6-((1-amino-3-phenylpropan-2-yl)amino)-2-((2,6-dimethoxypyridin-4-yl)amino)-5-fluoronicotinamide] the value was 10 to 50 nM.
In the case of `C[C@H](N)[C@H](Nc1nc(Nc2ccc3c(c2)c(N(C)C)nn3C)c(C(N)=O)cc1F)c1cccc(F)c1` [Example 2-452, 6-(((1R,2S)-2-amino-1-(3-fluorophenyl)propyl)amino)-2-((3-(dimethylamino)-1-methyl-1H-indazol-5-yl)amino)-5-fluoronicotinamide] it was below 10 nM.
`CCn1ncc2cc(Nc3nc(N[C@@H](CN)Cc4ccccc4)c(F)cc3C(N)=O)ccc21` [Example 2-363, (R)-6-((1-amino-3-phenylpropan-2-yl)amino)-2-((1-ethyl-1H-indazol-5-yl)amino)-5-fluoronicotinamide]: the IC50 is 10 to 50 nM.
On to `CC[C@H](N)[C@@H](CC)Nc1nc(Nc2cc(F)c3c(c2)c(OC)nn3C)c(C(N)=O)cc1F` [Example 2-160, 6-(((3R,4S)-4-aminohexan-3-yl)amino)-5-fluoro-2-((7-fluoro-3-methoxy-1-methyl-1H-indazol-5-yl)amino)nicotinamide], for which the IC50 was below 10 nM.
In the case of `Cc1ncc(Nc2nc(N[C@H](C)[C@@H](N)C3CC3)c(F)cc2C(N)=O)cc1-n1nccn1` [Example 2-226, 6-(((1S,2R)-1-amino-1-cyclopropylpropan-2-yl)amino)-5-fluoro-2-((6-methyl-5-(2H-1,2,3-triazol-2-yl)pyridin-3-yl)amino)nicotinamide], the IC50 was in the range of 50 to 100 nM.
In the case of `CC[C@H](N)[C@@H](CC)Nc1nc(Nc2ccc3c(c2)c(N(C)C)nn3C)c(C(N)=O)cc1F` [Example 2-92, 6-(((3R,4S)-4-aminohexan-3-yl)amino) 2-((3-(dimethylamino)-1-methyl-1H-indazol-5-yl)amino)-5-fluoronicotinamide], the IC50 fell in the range of 10 to 50 nM.
